As a reminder, the IC50 is the concentration that inhibits the measured activity by half. As a reminder, the solubility is the concentration that dissolves in the medium under given conditions.

The values below come from patent US8703785B2, “2-aminopyrimidin-4-one and 2-aminopyridine derivatives both having BACE1-inhibiting activity” (Shionogi & Co., Ltd., priority 2008, dated 2014).

Read-outs that look alike come from different tables or passages of the source. Some results are limits rather than exact numbers.

Series [1] has as its target Recombinant human BACE-1 (Homo sapiens (Human), UniProt P56817). The experiment in a line: Measurement of BACE1 inhibitory activity. Type of series: biochemical. Conditions: Recombinant human BACE-1 7.4 nM, substrate peptide 18 nM, pH 5.0, 3 hours at 30° C.; read-out: IC50 (BACE1 enzyme activity). How it is done:
First, 48.5 μl portions of a solution of substrate peptide (Biotin-XSEVNLDAEFRHDSGC-Eu: X=ε-amino-n-capronic acid, Eu=Europium cryptate) were put into respective wells of a 96-well half area microplate (black microplate, Costar). Then, 0.5 μl of a test compound (DMSO (dimethyl sulfoxide) solution) and 1 μl of Recombinant human BACE-1 (R&D systems) were added to each of the wells, and they were reacted for 3 hours at 30° C. […] The final concentration of the substrate peptide was set to 18 nM, and the final concentration of Recombinant human BACE-1 was set to 7.4 nM. The reaction buffer used was a sodium acetate buffer (50 mM sodium acetate, pH 5.0, 0.008% Triton X-100). After the reaction finished, 50 μl portions of a 8.0 μg/ml solution of Streptavidin-XL665 (CIS bio international) in a phosphate buffer (150 mM K2HPO4—KH2PO4, pH 7.0, 0.008% Triton X-100, 0.8 M KF) were added to the respective wells, and the plate was left standing for 1 hour at 30° C. Thereafter, the fluorescence intensity (excitation wavelength: 320 nm, measurement wavelength: 620 nm and 665 nm) was measured with a Wallac 1420 multilabel counter (Perkin Elmer life sciences). The enzyme activity was determined from the count rate at each measurement wavelength (10000× Count 665/Count 620), and the amount needed to inhibit the enzyme activity by 50% (IC50) was calculated.

The subject of series [2] is Neuroblastoma SH-SY5Y cells (SH/APPwt) with human wild-type β-APP excessively expressed. Briefly: Measurement of β-amyloid (Aβ) production inhibitory effect in cell. As to conditions: 24 hours incubation, Amyloid-β 1-40 HTRF. It is filed as cell-based. The procedure: Neuroblastoma SH-SY5Y cells (SH/APPwt) with human wild-type β-APP excessively expressed therein were prepared at 8×10^5 cells/mL, and 150 μl portions thereof were inoculated into respective wells of a 96-well culture plate (Falcon). The cells were cultured for 2 hours at 37° C. in a 5% gaseous carbon dioxide incubator. […] Namely, the final DMSO concentration was 1%, and the amount of the cell culture was 200 μl. After the incubation was performed for 24 hours from the addition of the test compound, 100 μl of the culture supernatant was collected from each fraction. The amount of the Aβ in each fraction was measured. The Aβ amount was measured as follows. 10 μl of a homogeneous time resolved fluorescence (HTRF) measurement reagent (Amyloid-β 1-40 peptide; IBA Molecular Holding, S.A.) and 10 μl of the culture supernatant were put into a 384-well half area microplate (black microplate, Costar) and mixed with each other, and then left standing overnight at 4° C. while the light was shielded. Then, the fluorescence intensity (excitation wavelength: 337 nm, measurement wavelength: 620 nm and 665 nm) was measured with a Wallac 1420 multilabel counter (Perkin Elmer life sciences).

A short description of series [3]: Metabolic stability test. Type of series: in vitro ADME. As to conditions: human liver microsomes 0.5 mg protein/mL, NADPH, 30 minutes at 37° C., compound concentration 2 μM. How it is done:
The target compound was reacted with commercially available pooled human liver microsomes for a predetermined time period. The residual rate was calculated by comparing the reacted sample and unreacted sample, and thus the degree of metabolism in liver was evaluated.
In 0.2 mL of a buffer (50 mmol/L tris-HCl pH 7.4, 150 mmol/L potassium chloride, 10 mmol/L magnesium chloride) containing human liver microsomes 0.5 mg protein/mL, reaction was carried out in the presence of 1 mmol/L NADPH for 0 minute or 30 minutes at 37° C. (oxidative reaction). After the reaction, 50 μL of the reaction solution was added to and mixed with 100 μL of a solution of methanol/acetonitrile=1/1 (v/v), and the mixture was centrifuged for 15 minutes at 3000 rpm. The test compound in the centrifuged supernatant was quantified by LC/MS/MS, and the residual amount of the test compound after the reaction was calculated based on the compound amount at 0-minute reaction set as 100%.
(Results) The residual rate at a compound concentration of 2 μM is shown below.
(In general: Liver microsomes are vesicles of endoplasmic reticulum, rich in cytochrome P450 enzymes.)

Series [4] has as its target T1, CYP3A4 (Homo sapiens (Human), UniProt P08684). Briefly: CYP3A4 fluorescent MBI test. Type of series: in vitro ADME. Conditions: E. coli-expressing CYP3A4, 7-BFC substrate, pre-reaction 0 or 30 minutes. The procedure: The CYP3A4 fluorescent MBI test is a test to examine enhancement of CYP3A4 inhibition by metabolic reaction of the compound. Here, E. coli-expressing CYP3A4 was used as an enzyme, and a reaction wherein 7-benzyloxy trifluoromethylcumarin (7-BFC) was debenzylated by the CYP3A4 enzyme into a fluorescent metabolite 7-hydroxytrifluoromethylcumarin (HFC) was employed as an indicator reaction. The reaction conditions were as follows.
Substrate: 5.6 μmol/L 7-BFC
Pre-reaction time: 0 or 30 minutes
Reaction time: 15 minutes
Reaction temperature: 25° C. (room temperature)
CYP3A4 content (E. coli-expressing enzyme): 62.5 pmol/mL at pre-reaction, […] at reaction (10-fold diluted) […]
The enzyme and a test compound solution were added to a K-Pi buffer (pH 7.4) in the aforementioned amounts for the pre-reaction so that a pre-reaction solution was prepared, and this solution was put into a 96-well microplate. […] With respect to each of the microplates on which the indicator reaction was performed, the fluorescence value of the metabolite 7-HFC was measured with a fluorescence plate reader (Ex=420 nm, Em=535 nm). […] The remaining activity (%) at each concentration after adding the test compound solution was calculated, and the IC50 value was calculated from the concentration and inhibition percentage by inverse estimation with the logistic model. […]

Series [5] deals with CYP2C9 (Homo sapiens (Human), UniProt P11712). The experiment in a line: CYP inhibition test (CYP2C9). It is filed as in vitro ADME. Conditions: pooled human liver microsomes, methyl-hydroxylation of tolbutamide. An excerpt: (§1) Using commercially available pooled human liver microsomes and employing typical substrate metabolic reactions of 5 major species of human CYP enzymes (CYP1A2, 2C9, 2C19, 2D6, 3A4), namely, O-deethylation of 7-ethoxyresorufin (CYP1A2), methyl-hydroxylation of tolbutamide (CYP2C9), 4′-hydroxylation of mephenyloin (CYP2C19), O-demethylation of dextromethorphan (CYP2D6), and hydroxylation of terfenadine (CYP3A4), as indicator reactions, the degree of inhibition of each metabolite production by each test compound was evaluated.
(§2) The reaction conditions were as follows:
(§3) Substrate: 0.5 μmol/L of ethoxyresorufin (CYP1A2), 100 μmol/L of tolbutamide (CYP2C9), 50 μmol/L of S-mephenyloin (CYP2C19), 5 μmol/L of dextromethorphan (CYP2D6), 1 μmol/L of terfenadine (CYP3A4); […]
(§4) As a reaction solution, the respective five substrates, human liver microsomes, and test compound in the aforementioned amounts were added to a 50 mM Hepes buffer in a 96-well microplate. […] Centrifugation was performed for 15 minutes at 3000 rpm, and each metabolite in the centrifuged supernatant was quantified. Namely, resorufin (CYP1A2 metabolite) was quantified with a fluorescence multilabel counter, and hydroxylated tolbutamide (CYP2C9 metabolite), 4′-hydroxylated mephenyloin (CYP2C19 metabolite), dextrorphan (CYP2D6 metabolite) and alcoholized terfenadine (CYP3A4 metabolite) were quantified with LC/MS/MS. […]

Series [6] addresses CYP2D6 (Homo sapiens (Human), UniProt P10635). Briefly: CYP inhibition test (CYP2D6). Type of series: in vitro ADME. As to conditions: pooled human liver microsomes, O-demethylation of dextromethorphan.
Text: as §1, §2, §3, §4

Series [7] deals with CYP1A2 (Homo sapiens (Human), UniProt P05177). The experiment in a line: CYP inhibition test (CYP1A2). Type of series: in vitro ADME.
Text: as §1, §2, §3, §4

Series [8] addresses T1, CYP3A4. The experiment in a line: CYP inhibition test (CYP3A4). Type of series: in vitro ADME. As to conditions: pooled human liver microsomes, hydroxylation of terfenadine.
Text: as §1, §2, §3, §4

The target of series [9] is CYP2C19 (Homo sapiens (Human), UniProt P33261). The experiment in a line: CYP inhibition test (CYP2C19). It is filed as in vitro ADME. As to conditions: pooled human liver microsomes, 4′-hydroxylation of mephenyloin.
Text: as §1, §2, §3, §4

Series [10] is described as follows: Solubility test. As to conditions: artificial intestinal juice (phosphate buffer) with 1% DMSO, fassgf or other biorelevant, kinetic from dmso stock, artificial intestinal juice pH 6.8, 16 hours at 25° C. It is filed as physicochemical. How it is done: The solubility of each compound was determined under 1% DMSO addition conditions. A 10 mM solution of the compound was prepared with DMSO, and 6 μL of the compound solution was added to 594 μL of an artificial intestinal juice (water and 118 mL of 0.2 mol/L NaOH reagent were added to 250 mL of 0.2 mol/L potassium dihydrogen phosphate reagent to reach 1000 mL) with a pH of 6.8. The mixture was left standing for 16 hours at 25° C., and the mixture was vacuum-filtered. The filtrate was two-fold diluted with methanol/water=1/1, and the compound concentration in the filtrate was measured with HPLC or LC/MS/MS by the absolute calibration method.

Sequence of Recombinant human BACE-1 (P56817 46-501): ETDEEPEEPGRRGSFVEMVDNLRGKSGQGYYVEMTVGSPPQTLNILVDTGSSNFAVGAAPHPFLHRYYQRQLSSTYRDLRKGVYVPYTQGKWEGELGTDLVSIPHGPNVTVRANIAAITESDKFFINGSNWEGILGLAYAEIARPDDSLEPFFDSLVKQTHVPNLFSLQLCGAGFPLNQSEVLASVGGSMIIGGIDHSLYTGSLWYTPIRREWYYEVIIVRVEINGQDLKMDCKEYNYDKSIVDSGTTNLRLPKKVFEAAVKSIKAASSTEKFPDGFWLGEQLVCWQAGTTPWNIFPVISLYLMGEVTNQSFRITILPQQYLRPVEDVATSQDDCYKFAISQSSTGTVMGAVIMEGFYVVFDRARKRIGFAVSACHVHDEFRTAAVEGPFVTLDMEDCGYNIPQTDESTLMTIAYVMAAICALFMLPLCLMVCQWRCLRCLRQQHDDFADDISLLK
T1 sequence (P08684 whole entry): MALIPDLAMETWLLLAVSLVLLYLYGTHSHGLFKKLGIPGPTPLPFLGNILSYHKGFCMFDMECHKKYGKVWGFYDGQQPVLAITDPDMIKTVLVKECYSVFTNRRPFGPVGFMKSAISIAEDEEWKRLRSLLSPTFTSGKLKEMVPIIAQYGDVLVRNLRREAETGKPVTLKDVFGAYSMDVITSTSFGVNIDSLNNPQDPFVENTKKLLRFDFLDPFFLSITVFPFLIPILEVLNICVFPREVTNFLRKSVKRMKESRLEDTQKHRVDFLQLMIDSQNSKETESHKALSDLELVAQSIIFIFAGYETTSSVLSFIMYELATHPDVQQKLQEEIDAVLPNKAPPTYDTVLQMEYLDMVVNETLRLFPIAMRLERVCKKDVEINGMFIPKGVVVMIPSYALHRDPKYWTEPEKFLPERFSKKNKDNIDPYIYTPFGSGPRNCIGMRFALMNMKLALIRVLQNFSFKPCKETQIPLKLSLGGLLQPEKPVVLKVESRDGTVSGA
Sequence of CYP1A2 (P05177 whole entry): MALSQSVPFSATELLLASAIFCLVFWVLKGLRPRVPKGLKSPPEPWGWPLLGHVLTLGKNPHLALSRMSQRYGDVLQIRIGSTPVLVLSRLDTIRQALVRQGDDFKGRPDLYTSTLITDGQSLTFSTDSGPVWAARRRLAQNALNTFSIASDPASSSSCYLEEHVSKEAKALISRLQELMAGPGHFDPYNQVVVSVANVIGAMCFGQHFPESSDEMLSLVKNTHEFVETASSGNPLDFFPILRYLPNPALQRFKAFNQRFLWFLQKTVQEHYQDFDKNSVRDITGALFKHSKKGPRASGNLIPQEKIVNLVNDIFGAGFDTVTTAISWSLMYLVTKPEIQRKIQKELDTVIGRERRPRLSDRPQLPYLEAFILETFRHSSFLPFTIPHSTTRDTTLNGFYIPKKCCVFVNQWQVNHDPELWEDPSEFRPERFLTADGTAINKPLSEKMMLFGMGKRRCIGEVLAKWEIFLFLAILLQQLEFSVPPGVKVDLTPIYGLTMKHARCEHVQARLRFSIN
Sequence of CYP2D6 (P10635 whole entry): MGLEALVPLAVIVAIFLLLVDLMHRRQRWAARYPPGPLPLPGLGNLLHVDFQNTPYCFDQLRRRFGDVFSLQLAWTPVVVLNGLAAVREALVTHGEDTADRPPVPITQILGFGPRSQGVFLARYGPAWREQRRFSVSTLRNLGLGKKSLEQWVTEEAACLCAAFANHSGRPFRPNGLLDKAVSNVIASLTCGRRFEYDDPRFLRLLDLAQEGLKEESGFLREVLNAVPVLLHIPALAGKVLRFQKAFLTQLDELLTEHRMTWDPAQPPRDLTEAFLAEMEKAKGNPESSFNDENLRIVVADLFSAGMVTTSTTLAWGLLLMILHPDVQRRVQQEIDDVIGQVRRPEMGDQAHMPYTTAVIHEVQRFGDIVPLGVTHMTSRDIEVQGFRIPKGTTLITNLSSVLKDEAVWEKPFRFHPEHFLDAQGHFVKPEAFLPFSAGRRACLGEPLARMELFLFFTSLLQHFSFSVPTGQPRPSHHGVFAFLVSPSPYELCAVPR
Sequence of CYP2C19 (P33261 whole entry): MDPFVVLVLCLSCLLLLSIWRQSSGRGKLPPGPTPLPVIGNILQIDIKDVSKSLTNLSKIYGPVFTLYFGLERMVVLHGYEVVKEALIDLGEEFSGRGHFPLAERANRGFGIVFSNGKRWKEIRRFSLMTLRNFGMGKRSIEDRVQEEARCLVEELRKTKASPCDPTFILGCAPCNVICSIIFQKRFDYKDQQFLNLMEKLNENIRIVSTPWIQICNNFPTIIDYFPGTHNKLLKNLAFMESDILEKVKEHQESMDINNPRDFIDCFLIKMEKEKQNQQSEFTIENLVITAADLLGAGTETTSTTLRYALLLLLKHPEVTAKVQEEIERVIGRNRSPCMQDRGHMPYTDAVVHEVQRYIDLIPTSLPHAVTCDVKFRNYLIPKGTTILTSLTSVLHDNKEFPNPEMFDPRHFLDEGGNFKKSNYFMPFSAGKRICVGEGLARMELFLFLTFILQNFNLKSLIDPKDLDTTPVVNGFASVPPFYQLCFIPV
Sequence of CYP2C9 (P11712 whole entry): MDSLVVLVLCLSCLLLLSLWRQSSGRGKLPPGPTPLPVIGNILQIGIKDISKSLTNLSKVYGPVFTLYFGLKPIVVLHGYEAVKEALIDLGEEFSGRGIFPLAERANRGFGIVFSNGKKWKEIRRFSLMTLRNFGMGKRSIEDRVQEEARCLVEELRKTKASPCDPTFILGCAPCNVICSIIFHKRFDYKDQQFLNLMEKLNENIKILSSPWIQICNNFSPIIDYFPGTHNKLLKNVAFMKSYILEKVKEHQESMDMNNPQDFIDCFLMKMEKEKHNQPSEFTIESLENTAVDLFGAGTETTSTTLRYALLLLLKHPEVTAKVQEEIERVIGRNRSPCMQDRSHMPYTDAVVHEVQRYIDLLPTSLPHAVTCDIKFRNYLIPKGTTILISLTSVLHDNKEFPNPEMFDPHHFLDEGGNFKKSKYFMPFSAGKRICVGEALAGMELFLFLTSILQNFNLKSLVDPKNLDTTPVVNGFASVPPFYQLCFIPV

Regarding `CN1C(=O)CC(C)(c2cccc(NC(=O)c3cnc(Cl)cn3)c2)N=C1N` (stereo not shown) [Compound 34], the IC50 in series [1] turned out to be 0.037 µM; in series [2], 0.0762 µM.

`COc1cnc(C(=O)Nc2cccc(C3(C)CC(=O)N(C)C(N)=N3)c2)cn1` (stereo not shown) [Compound 35]: the IC50 worked out at 0.042 µM in [1] and 0.0066 µM in [2]. The residual rate in series [3] was 99.5%.

The molecule `C#CCOc1cnc(C(=O)Nc2cccc(C3(C)CC(=O)N(C)C(N)=N3)c2)cn1` (stereo not shown) [Compound 43] yielded an IC50 difference without vs with pre-reaction in series [4] of at most 3 µM. Moreover, the results for the IC50 in [1] and in series [2] were 0.056 µM and 0.0286 µM, respectively.

With `CC#CCOc1cnc(C(=O)Nc2cccc(C3(C)CC(=O)N(C)C(N)=N3)c2)cn1` (stereo not shown) [Compound 44], the IC50 was above 20 µM in [5]; above 20 µM in series [6]; 0.012 µM in series [1]; above 20 µM in series [7]; above 20 µM in series [8]; 0.0007 µM in series [2]. The half-maximal inhibitory concentration (IC50) in series [9] was above 20 µM.

Turning to `COc1cnc(C(=O)Nc2cccc(CNc3cccnc3N)c2)cn1` [Compound 473], the IC50 is above 20 µM in [5]; above 20 µM in [6]; 1.99 µM in series [1]; above 20 µM in series [7] (pooled human liver microsomes, O-deethylation of 7-ethoxyresorufin, read-out: IC50 CYP1A2 inhibition); above 20 µM in [8]; 0.479 µM in series [2]. The molecule further displayed an IC50 in [9] above 20 µM. This molecule displayed a solubility at 16 h in series [10] above 50 µM.

For `COCCOc1cnc(C(=O)Nc2cccc(CNc3cccnc3N)c2)cn1` [Compound 478], the IC50 was found to be 3.18 µM in series [1] and 0.811 µM in series [2]. Besides, the solubility at 16 h in series [10] is above 50 µM.

Consider `C#CCOc1cnc(C(=O)Nc2cccc(CNc3cccnc3N)c2)cn1` [Compound 481], for which the IC50 in [1] stood at 0.18 µM; in series [2], 0.0768 µM.

For the molecule `CC#CCOc1cnc(C(=O)Nc2cccc(CNc3cccnc3N)c2)cn1` [Compound 482], the IC50 in series [1] turned out to be 0.073 µM; in series [2], 0.0438 µM.

The molecule `C[C@@H](NC(=O)c1cc(C(=O)N[C@@H](Cc2ccccc2)[C@H](O)CNC2CC2)cc(N(C)S(C)(=O)=O)c1)c1ccccc1` [Reference Compound, reference compound] displayed an IC50 in series [2] of 0.0368 µM.
